Measurements: patent US20260242373A1, “NBD1 MODULATORS AND METHODS OF USING THE SAME” (Sionna Therapeutics Inc., priority 2023, published 2026)

Experiments:
NBD1 = assay: Aggregation analysis of NBD1 thermal stability by differential static light scattering (DSLS); format: binding, Human; conditions: 100 μM compound; ΔTagg versus DMSO control
Protocol: Purified recombinant NBD1 was produced using previously described methods (A. Schmidt, J. L. Mendoza, P. J. Thomas (2011) Biochemical and Biophysical Approaches to Probe CFTR Structure (365-376) M. D. Amaral, K. Kunzelmann (eds.), Cystic Fibrosis, Methods in Molecular Biology 741, Springer Science+Business Media). The effect of test compounds on thermal stability of NBD1 was evaluated by differential static light scattering (DSLS) using the Harbinger Stargazer-384 instrument (Epiphyte Three, Toronto, Canada). Test compounds were dissolved and diluted to desired concentrations in 100% DMSO. The compounds or DMSO controls (100 nL) were stamped into wells of a […] low volume optical plate (Corning Inc., Corning, NY) using the Echo 555 acoustic liquid handler (Labcyte Inc., San Jose, CA).
NBD1 protein was diluted to 0.2 mg/ml in S200 buffer (50 mM Tris-HCl, 150 mM NaCl, 5 mM MgCl2, 2 mM ATP, 2 mM DTT, pH7.6) containing 1% glycerol. 10 uL of protein solution was aliquoted into the 384-well plate harboring the test compounds and 10 uL mineral oil was overlayed onto the protein solution, using the epMotion robotic liquid handler (Eppendorf North America, Hauppauge, NY). After placing into the Stargazer instrument, the plate was heated at 1° C. per minute to 70° C. Images were captured from 25° C. to 70° C. every 0.5° C. At the end of the experiment run, instrument software integrated image files and analyzed data automatically. A […] regression curve was generated for each well, representing the increase in light scattering over time. A temperature of aggregation (Tagg) was calculated based on the inflection point of the curve. To better compare data across experiments the average Tagg for DMSO control wells was calculated and subtracted from values for wells containing compounds to obtain a “ΔTagg” value. These ΔTagg values reflect stabilizing efficacy of the compounds.

[1] = system: Primary human bronchial epithelial cells from a ΔF508 homozygous CF donor (CF-HBE cells); assay: TECC24 recording of CFTR-mediated transepithelial chloride transport, AUC fold over DMSO; format: cell-based; conditions: 48 hours incubation, ratio of test agent AUC to vehicle AUC of forskolin-stimulated IEQ
Protocol: The effects of a test agent on CFTR-mediated transepithelial chloride transport was measured using TECC24 recording analysis. Test agents were solubilized in DMSO. Solubilized test agents were mixed with incubation medium containing DMEM/F12, Ultroser G (2%; Crescent Chemical, catalog #67042), Hyclone Fetal Clone 11 (2%; GE Healthcare, catalog #SH30066.02), bovine brain extract (0.25%; Lonza, catalog #CC-4098), insulin (2.5 μg/mL), IL-13 (10 ng/mL), hydrocortisone (20 nM), transferrin ([…]), triiodothyronine (500 nM), ethanolamine (250 nM), epinephrine (1.5 μM), phosphoethanolamine (250 nM), and retinoic acid (10 nM). Primary human bronchial epithelial cells from a ΔF508 homozygous CF donor (CF-HBE cells; from University of North Carolina Cystic Fibrosis Tissue Procurement Center), grown on Transwell HTS 24-well cell culture inserts (Costar, catalog #3378), were exposed to test agents or controls dissolved in incubation medium. The CF-HBE cells were cultured at 36.5° C. for 48 hours before TECC24 recordings were performed in the presence or absence of test agent, a positive control or vehicle (DMSO).
Following incubation, the transwell cell culture inserts containing the test agent or control-treated CF-HBE cells were loaded onto a TECC24 apparatus (TECC v7 or MTECC v2; EP Design) to record the transepithelial voltage (VT) and resistance (TEER) using 4 AgCl electrodes per well configured in current-clamp mode. The apical and basolateral bath solutions both contained (in mM) 140 NaCl, 5 KCl, 2 CaCl2), 1 MgCl2, 10 Hepes, and 10 glucose (adjusted to pH 7.4 with NaOH). To inhibit basal Na+ absorption, the ENaC inhibitor benzamil (10 μM) was added to the bath. Then, the adenylate cyclase activator, forskolin ([…]), was added to the bath to activate CFTR. The forskolin-stimulated Cl— transport was halted by addition of CFTR inhibitor-172 ([…]) to the bath at the end of the experiment to confirm specificity. […] Efficacy is expressed as the ratio of the test agent AUC divided by vehicle AUC. […]

Structure (SMILES) | DSLS NBD1/3D Human Stability delta-T (° C.) @ 100 (μM) (NBD1) | TECC24 @ 10 uM over DMSO [1]
C[C@@H](c1nc(-c2cc(Oc3c(F)cc4[nH]ccc4c3F)ccc2F)n(C)n1)c1ccc(CCC(=O)O)s1 (single isomer, unassigned) [Compound 44] | B (B: 4-8° C.) | C (“C” refers to AUC @ 10 uM <=4)
Cc1c(Oc2ccc(F)c(-c3nc(Cc4csc(CCC(=O)O)c4)c[nH]3)c2)c(F)cc2[nH]ccc12 [Compound 4, 3-(4-((2-(2-fluoro-5-((6-fluoro-4-methyl-1H-indol-5-yl)oxy)phenyl)-1H-imidazol-4-yl)methyl)thiophen-2-yl)propanoic acid] | B (B: 4-8° C.) | C (“C” refers to AUC @ 10 uM <=4)
c1cc(Oc2ccc3[nH]ccc3c2)cc(-c2nnc(Cc3cccs3)[nH]2)c1 [Compound 10, 5-(3-(5-(thiophen-2-ylmethyl)-4H-1,2,4-triazol-3-yl)phenoxy)-1H-indole] | C (C: ≤4° C.) | C (“C” refers to AUC @ 10 uM <=4)
